From publication PMC7093416, “Selective USP7 inhibition elicits cancer cell killing through a p53-dependent mechanism” (Scientific Reports, 2020)
Values joined by “and” are separate entries in the source; they are usually repeats but may differ in a detail not shown here. Identical values can stand only once.

Test system: panel of 484 cancer cell lines
Experiment: PRISM cancer cell line profiling, 5 days
Assay type: cell-based
Set-up: Viability: scale not given here; AUC: unit not given beside the values
Procedure: Cancer cell line profiling was performed using the Broad’s PRISM platform. Cell treatment and data analysis were performed as described in Yu et al[42]. Raw Luminex signal was converted to AUC values for each cell line as described. The resulting AUC profile for each compound was modeled against DepMap using the limma package in R[71]. Because hotspot mutation analysis was performed against DepMap, TP53 annotations in Fig. 6c,d are directly from DepMap.

[1] = 8MGBA_CENTRAL_NERVOUS_SYSTEM, pert_dose 6.10E-04
[2] = 253J_URINARY_TRACT, pert_dose 6.10E-04
[3] = 786O_KIDNEY, pert_dose 6.10E-04
[4] = 8305C_THYROID, pert_dose 6.10E-04
[5] = 8505C_THYROID, pert_dose 6.10E-04
[6] = A172_CENTRAL_NERVOUS_SYSTEM, pert_dose 6.10E-04
[7] = ACHN_KIDNEY, pert_dose 6.10E-04
[8] = AN3CA_ENDOMETRIUM, pert_dose 6.10E-04
[9] = ASPC1_PANCREAS, pert_dose 6.10E-04
[10] = BC3C_URINARY_TRACT, pert_dose 6.10E-04
[11] = BECKER_CENTRAL_NERVOUS_SYSTEM, pert_dose 6.10E-04
[12] = BFTC905_URINARY_TRACT, pert_dose 6.10E-04
[13] = BFTC909_KIDNEY, pert_dose 6.10E-04
[14] = BICR6_UPPER_AERODIGESTIVE_TRACT, pert_dose 6.10E-04
[15] = BICR16_UPPER_AERODIGESTIVE_TRACT, pert_dose 6.10E-04

**Q.** What does the source list for `COc1ccc(C2=N[C@@H](c3ccc(Cl)cc3)[C@@H](c3ccc(Cl)cc3)N2C(=O)N2CCNC(=O)C2)c(OC(C)C)c1` [Nutlin-3A]?
**A.** AUC (8MGBA_CENTRAL_NERVOUS_SYSTEM): 1.128; MFI 8MGBA_CENTRAL_NERVOUS_SYSTEM [1]: 9934 and 14986 and 8645 and 10478 and 11554; Viability [1]: 0.9428; AUC (22RV1_PROSTATE): 1.096; AUC (42MGBA_CENTRAL_NERVOUS_SYSTEM): 1.109; MFI 42MGBA_CENTRAL_NERVOUS_SYSTEM (42MGBA_CENTRAL_NERVOUS_SYSTEM, pert_dose 6.10E-04): 4116 and 5824 and 3462 and 5974.5 and 4899; AUC (253JBV_URINARY_TRACT): 0.9024; AUC (253J_URINARY_TRACT): 0.9134; MFI 253J_URINARY_TRACT [2]: 13400 and 14082 and 16791.5 and 16677.5 and 16246; Viability [2]: 0.9155; AUC (639V_URINARY_TRACT): 1.087; AUC (647V_URINARY_TRACT): 1.106; MFI 647V_URINARY_TRACT (647V_URINARY_TRACT, pert_dose 6.10E-04): 28744 and 33002 and 29259 and 22669.5 and 34567; AUC (769P_KIDNEY): 0.9079; AUC (786O_KIDNEY): 1.095; MFI 786O_KIDNEY [3]: 5233.5 and 8009.5 and 6751 and 6471 and 5976.5; Viability [3]: 0.8974; AUC (5637_URINARY_TRACT): 1.131; MFI 5637_URINARY_TRACT (5637_URINARY_TRACT, pert_dose 6.10E-04): 5164 and 5198 and 5608 and 5118 and 4250; AUC (8305C_THYROID): 1.086; MFI 8305C_THYROID [4]: 12807.5 and 11646.5 and 14452 and 19016 and 21699; Viability [4]: 0.9334; AUC (8505C_THYROID): 1.09; MFI 8505C_THYROID [5]: 8489.5 and 8271 and 7453 and 9513 and 9868; Viability [5]: 1.233; AUC (2313287_STOMACH): 1.164; AUC (A101D_SKIN): 0.8317; AUC (A172_CENTRAL_NERVOUS_SYSTEM): 0.8527; MFI A172_CENTRAL_NERVOUS_SYSTEM [6]: 9637 and 10480 and 8488 and 7646 and 8288; Viability [6]: 1.171; AUC (A204_SOFT_TISSUE): 0.961; MFI A204_SOFT_TISSUE (A204_SOFT_TISSUE, pert_dose 6.10E-04): 193.5 and 222 and 295.5 and 243.5 and 208; AUC (A375_SKIN): 0.8657; MFI A375_SKIN (A375_SKIN, pert_dose 6.10E-04): 6835.5 and 8654.5 and 5268 and 5613 and 4840.5; Viability (A375_SKIN, pert_dose 6.10E-04): 1.106; AUC (A549_LUNG): 0.859; MFI A549_LUNG (A549_LUNG, pert_dose 6.10E-04): 9119 and 8938 and 13071.5 and 13916 and 10911; Viability (A549_LUNG, pert_dose 6.10E-04): 1.178; AUC (A673_BONE): 1.118; AUC (A704_KIDNEY): 0.9164; AUC (A2058_SKIN): 1.115; MFI A2058_SKIN (A2058_SKIN, pert_dose 6.10E-04): 18135 and 19395 and 19549.5 and 22935 and 20108; Viability (A2058_SKIN, pert_dose 6.10E-04): 1.165; AUC (A2780_OVARY): 0.8149; MFI A2780_OVARY (A2780_OVARY, pert_dose 6.10E-04): 18911 and 15634 and 16575 and 14170.5 and 15163.5; AUC (ABC1_LUNG): 1.193; AUC (ACCMESO1_PLEURA): 1.068; AUC (ACHN_KIDNEY): 0.8632; MFI ACHN_KIDNEY [7]: 12459.5 and 11580 and 11974.5 and 13015.5 and 8174; Viability [7]: 1.255; AUC (AGS_STOMACH): 1.099; MFI AGS_STOMACH (AGS_STOMACH, pert_dose 6.10E-04): 33881 and 40936.5 and 34938 and 35658 and 38326; AUC (AN3CA_ENDOMETRIUM): 1.0825; MFI AN3CA_ENDOMETRIUM [8]: 6120 and 10572 and 7019 and 6758 and 9328; Viability [8]: 0.9599; AUC (ASPC1_PANCREAS): 1.065; MFI ASPC1_PANCREAS [9]: 18934.5 and 23594 and 20951.5 and 18601 and 21238; Viability [9]: 1.138; AUC (BC3C_URINARY_TRACT): 1.147; MFI BC3C_URINARY_TRACT [10]: 12791.5 and 13915 and 8459 and 10458.5 and 8646; Viability [10]: 1.328; AUC (BCPAP_THYROID): 1.122; AUC (BECKER_CENTRAL_NERVOUS_SYSTEM): 1.117; MFI BECKER_CENTRAL_NERVOUS_SYSTEM [11]: 24187 and 19210 and 17010 and 22220 and 21019.5; Viability [11]: 1.525; AUC (BEN_LUNG): 1.146; MFI BEN_LUNG (BEN_LUNG, pert_dose 6.10E-04): 7960 and 8798 and 6007 and 9178 and 9972.5; Viability (BEN_LUNG, pert_dose 6.10E-04): 1.0724; AUC (BFTC905_URINARY_TRACT): 1.2069; MFI BFTC905_URINARY_TRACT [12]: 6936 and 8493 and 9950.5 and 8885 and 6674.5; Viability [12]: 0.7676; AUC (BFTC909_KIDNEY): 1.167; MFI BFTC909_KIDNEY [13]: 11810 and 18038 and 14602 and 12914 and 16966; Viability [13]: 1.223; AUC (BHT101_THYROID): 1.133; AUC (BICR6_UPPER_AERODIGESTIVE_TRACT): 1.14; MFI BICR6_UPPER_AERODIGESTIVE_TRACT [14]: 13342 and 11342 and 11621 and 10074.5 and 14217; Viability [14]: 1.497; AUC (BICR16_UPPER_AERODIGESTIVE_TRACT): 1.202; MFI BICR16_UPPER_AERODIGESTIVE_TRACT [15]: 5443.5 and 5515 and 3801.5 and 7225 and 7467; Viability [15]: 1.266; AUC (BICR31_UPPER_AERODIGESTIVE_TRACT): 1.128; MFI BICR31_UPPER_AERODIGESTIVE_TRACT (BICR31_UPPER_AERODIGESTIVE_TRACT, pert_dose 6.10E-04): 17717 and 15090 and 19092 and 15830 and 14976; AUC (BICR56_UPPER_AERODIGESTIVE_TRACT): 1.158; AUC (BT474_BREAST): 1.172; AUC (BT549_BREAST): 1.133; AUC (BXPC3_PANCREAS): 1.49; AUC (CADOES1_BONE): 1.1262; Viability (CADOES1_BONE, pert_dose 6.10E-04): 1.326; AUC (CAKI1_KIDNEY): 0.8906; MFI CAKI1_KIDNEY (CAKI1_KIDNEY, pert_dose 6.10E-04): 21451 and 18142 and 20425 and 19719.5 and 25262.5
